EC50 and CC50 data for 12 compounds are collected here from patent US20250034182A1, “PHOSPHOLIPID COMPOUNDS AND METHODS OF MAKING AND USING THE SAME” (priority 2021, published 2025).

Structures are written as SMILES. Read-outs that look alike come from different tables or passages of the source.

Holding throughout (format): cell-based
For data set [1], the system named is Respiratory syncytial virus recombinant with luciferase (RSV-Luc5) in HEp-2 cells. In words: HEp-2 RSV-Luc5 384-well assay (EC50 RSVFLUC Hep2-384, Example R). Conditions: human respiratory syncytial virus, HEp-2, 72 h, read-out: RSV Hep-2 FLuc EC50 (nM) (per Ex. R). The text has this: HEp-2 cell line was purchased from ATCC (Manassas, VA Cat #CCL-23) and maintained in Dulbecco's […] (DMEM) (Corning, New York, NY, Cat #15-018CM) supplemented with 10% fetal bovine serum (FBS) (Hyclone, Logan, UT, Cat #SH30071-03) and 1× Penicillin-Streptornycin-L-Glutamine (Corning, New York, NY, Cat #30-009-CI). Cells were passaged 2 times per week to maintain sub-confluent densities and were used for experiments at passage 5-20. Respiratory syncytial virus recombinant with luciferase (RSV-Luc5) direct pelleted virus (≥1×107 TCID50/ml) was purchased from Microbiologics (Saint Cloud, MN). Viral replication was determined in HEp-2 cells in the following manner.
Compounds are prepared in 384-well polypropylene plates (Greiner, Monroe, NC, Cat #784201) with 8 compounds per plate in grouped replicates of 4 at 10 serially diluted concentrations (1:3).
HEp-2 cells were suspended in DMEM (supplemented with 10% FBS and 1×Penicillin-Streptonycin-L-Glutimine) and 60 μL of 4,000 cells per well were seeded into 384-well plates (Greiner, Monroe, NC, Cat #781080) using Biotek MultiFlo dispenser. After overnight incubation at 37° C. and 5% CO2, 0.4 uL of three-fold serial dilutions of compound was added to each well using a Biomek FX pipette station. RSV-Luc5 viruses were diluted in DMEM (supplemented with 10% FBS and 1× Penicillin-Streptonycin-L-Glutainie) at an MOI=0.5. Virus suspension was added to each 384-well compound plate at 20 uL per well using a Biotek MultiFlo dispenser. The assay plates were incubated for 3 days at 37° C. and 5% CO2. At the end of incubation, One-Glo reagent (Promega, Madison, WI, Cat #E6120) was prepared. The assay plate and the reagent were equilibrated to room temperature for 30 minutes. 50 uL per well of medium was removed from assay plate and 40 uL per well of One-Glo reagent was added to each plate by Biomek FX. The plates were sat at room temp for 15 minutes. Viral replication was then assessed by measuring luminescence signal using and Envision plate reader. Remdesivir was used as positive control and DMSO was used as negative control. Values were normalized to the positive and negative controls (as 0% and 100% replication, respectively) and data was fitted using non-linear regression analysis by Gilead's dose response tool. The EC50 value for each compound was then determined as the concentration reducing the viral replication by 50%.

In data set [2] the test system is HCV Replicon 1B. The experiment in a line: HCV Replicon 1B EC50 (Example Q). Conditions: Hepatitis C virus, 72 h, read-out: HCV Replicon 1B EC50 (nM) (per Ex. Q). The method, then: (§1) Compounds were serially diluted in ten steps of 1:3 dilutions in 384-well plates. All serial dilutions were performed in four replicates per compound within the same 384-well plate. An HCV protease inhibitor ITMN-191 at […] was added as a control of 100% inhibition of HCV replication while puromycin at 10 mM was included as a control of 100% cytotoxicity. To each well of a black polystyrene 384-well plate (Greiner Bio-one, Monroe, NC), 90 μL of cell culture medium (without Geneticin) containing 2000 suspended HCV replicon cells was added with a Biotek μFlow workstation. For compound transfer into cell culture plates, 0.4 μL of compound solution from the compound serial dilution plate was transferred to the cell culture plate on a Biomek FX workstation. The DMSO concentration in the final assay wells was 0.44%. The plates were incubated for 3 days at 37° C. with 5% CO2 and 85% humidity. The HCV replicon assay was a multiplex assay, able to assess both cytotoxicity and antireplicon activity from the same well. The CC50 assay was performed first. The media in the 384-well cell culture plate was aspirated, and the wells were washed four times with 100 μL of PBS each, using a Biotek ELX405 plate washer. A volume of 50 μL of a solution containing 400 nM calcein AM (Anaspec, Fremont, CA) in 1×PBS was added to each well of the plate with a Biotek μFlow workstation. The plate was incubated for 30 min at room temperature before the fluorescence signal (excitation 490 nm, emission 520 nm) was measured with a Perkin-Elmer Envision plate reader. The EC50 assay was performed in the same wells as the CC50 assay. The calcein-PBS solution in the 384-well cell culture plate was aspirated with a Biotek ELX405 plate washer. A volume of 20 μL of Dual-Glo luciferase buffer (Promega, Madison, WI) was added to each well of the plate with a Biotek μFlow Workstation. The plate was incubated for 10 min at room temperature. A volume of 20 μL of a solution containing a 1:100 mixture of Dual-Glo Stop & Glo substrate (Promega, Madison, WI) and Dual-Glo Stop & Glo buffer (Promega, Madison, WI) was added to each well of the plate with a Biotek μFlow Workstation. The plate was then incubated at room temperature for 10 min before the luminescence signal was measured with a Perkin-Elmer Envision Plate Reader.
On the technique in general: A replicon is a self-replicating genome or part of one, used to study replication in cells.

Data set [3] is described as follows: HCV Replicon 1B CC50, calcein AM (Example Q). To be noted: calcein AM fluorescence, read-out: HCV Replicon 1B CC50 (nM) (per Ex. Q). As for the experimental part: as §1
[4] abbreviates: HCV replicon cells, 3 days, Dual-Glo luciferase.

As a reminder, the EC50 is the concentration that produces a half-maximal response. Take `CCCCCCCCCCCCCCCCCCOC[C@H](COP(=O)(O)OC[C@@]1(C#N)O[C@@H](c2ccc3c(N)ncnn23)[C@H](O)[C@@H]1O)OCc1ccc(C#N)nc1` [Compound 19, ((2R,3S,4R,5S)-5-(4-aminopyrrolo[2,1-f][1,2,4]triazin-7-yl)-2-cyano-3,4-dihydroxytetrahydrofuran-2-yl)methyl ((R)-2-((6-cyanopyridin-3-yl)methoxy)-3-(octadecyloxy)propyl) hydrogen phosphate]: the 50% effective concentration (EC50) in data set [1] turned out to be 48 nM. Consider `CCCCCCCCCCCCCCCCCCC[C@H](COP(=O)(O)OC[C@@]1(C#N)O[C@@H](c2ccc3c(N)ncnn23)[C@H](O)[C@@H]1O)OCc1cc(F)cc(C#N)c1` [Compound 25, ((2R,3S,4R,5S)-5-(4-aminopyrrolo[2,1-f][1,2,4]triazin-7-yl)-2-cyano-3,4-dihydroxytetrahydrofuran-2-yl)methyl ((R)-2-((3-cyano-5-fluorobenzyl)oxy)henicosyl) hydrogen phosphate], for which the EC50 in data set [1] turned out to be 291 nM. The term CC50 denotes the concentration giving 50% cytotoxicity. In the case of `CCCCCCCCCCCCCCCCCCC[C@H](COP(=O)(O)OC[C@@]1(C#N)O[C@@H](c2ccc3c(N)ncnn23)[C@H](O)[C@@H]1O)OCc1ccc(-n2cncn2)c(C#N)c1` [Compound 30, ((2R,3S,4R)-5-(4-aminopyrrolo[2,1-f][1,2,4]triazin-7-yl)-2-cyano-3,4-dihydroxytetrahydrofuran-2-yl)methyl ((R)-2-((3-cyano-4-(1H-1,2,4-triazol-1-yl)benzyl)oxy)henicosyl) hydrogen phosphate], the EC50 in data set [2] was 3990 nM. Besides, the CC50 at 3 days in data set [3] (HCV replicon cells) was over 44400 nM. In the same order, the values of `CCCCCCCCCCCCCCCCCCCC[C@@H](COP(=O)(O)OC[C@@]1(C#N)O[C@@H](c2ccc3c(N)ncnn23)[C@H](O)[C@@H]1O)OCc1cc(F)cc(C#N)c1` [Compound 70, ((2R,3S,4R)-5-(4-aminopyrrolo[2,1-f][1,2,4]triazin-7-yl)-2-cyano-3,4-dihydroxytetrahydrofuran-2-yl)methyl ((S)-2-((3-cyano-5-fluorobenzyl)oxy)docosyl) hydrogen phosphate] are 19600 nM and over 44400 nM. As for `CCCCCCCCCCCCCCCCCCOC[C@@H](COP(=O)(O)OC[C@@]1(C#N)O[C@@H](c2ccc3c(N)ncnn23)[C@H](O)[C@@H]1O)Oc1ccc(C#N)nc1` [Compound 72, ((2R,3S,4R,5S)-5-(4-aminopyrrolo[2,1-f][1,2,4]triazin-7-yl)-2-cyano-3,4-dihydroxytetrahydrofuran-2-yl)methyl ((S)-2-((6-cyanopyridin-3-yl)oxy)-3-(octadecyloxy)propyl) hydrogen phosphate], in data set [2], the EC50 came to 465 nM. Also, the CC50 at 3 days in data set [3] (HCV replicon cells) is over 44400 nM. Regarding `CCCCCCCCCCCCCCCCC[C@@H](COP(=O)(O)OC[C@@]1(C#N)O[C@@H](c2ccc3c(N)ncnn23)[C@H](O)[C@@H]1O)OCc1cc(F)cc(C#N)c1` [Compound 74, ((2R,3S,4R)-5-(4-aminopyrrolo[2,1-f][1,2,4]triazin-7-yl)-2-cyano-3,4-dihydroxytetrahydrofuran-2-yl)methyl ((S)-2-((3-cyano-5-fluorobenzyl)oxy)nonadecyl) hydrogen phosphate], in data set [2], the EC50 was determined as 26200 nM. The CC50 at 3 days in data set [3] (HCV replicon cells) is over 44400 nM. As for `CCCCCCCCCCCCCCOC[C@H](COP(=O)(O)OC[C@@]1(C#N)O[C@@H](c2ccc3c(N)ncnn23)[C@H](O)[C@@H]1O)OCc1ccc(C#N)cc1F` [Compound 75, ((2R,3S,4R,5S)-5-(4-aminopyrrolo[2,1-f][1,2,4]triazin-7-yl)-2-cyano-3,4-dihydroxytetrahydrofuran-2-yl)methyl ((R)-2-((4-cyano-2-fluorobenzyl)oxy)-3-(tetradecyloxy)propyl) hydrogen phosphate], in data set [1], the EC50 turned out to be 385 nM. In the case of `CCCCCCCCCCCCCCCC[C@H](COP(=O)(O)OC[C@@]1(C#N)O[C@@H](c2ccc3c(N)ncnn23)[C@H](O)[C@@H]1O)OCc1cc(F)cc(C#N)c1` [Compound 78, ((2R,3S,4R,5S)-5-(4-aminopyrrolo[2,1-f][1,2,4]triazin-7-yl)-2-cyano-3,4-dihydroxytetrahydrofuran-2-yl)methyl ((R)-2-((3-cyano-5-fluorobenzyl)oxy)octadecyl) hydrogen phosphate], the half-maximal effective concentration (EC50) in data set [2] (setting [4]) came out at 27600 nM. In data set [3] (HCV replicon cells (1B)), the CC50 at 3 days was over 44400 nM. As to `CCCCCCCCCCCCCCCC[C@@H](COP(=O)(O)OC[C@@]1(C#N)O[C@@H](c2ccc3c(N)ncnn23)[C@H](O)[C@@H]1O)OCc1cc(F)cc(C#N)c1` [Compound 79, ((2R,3S,4R,5S)-5-(4-aminopyrrolo[2,1-f][1,2,4]triazin-7-yl)-2-cyano-3,4-dihydroxytetrahydrofuran-2-yl)methyl ((S)-2-((3-cyano-5-fluorobenzyl)oxy)octadecyl) hydrogen phosphate], in data set [2] (setting [4]), the 50% effective concentration (EC50) turned out to be 24300 nM. For the same compound, in data set [3] (HCV replicon cells (1B)), the 50% cytotoxic concentration (CC50) at 3 days is over 44400 nM. For the compound `CCCCCCCCCCCCCCC[C@H](COP(=O)(O)OC[C@@]1(C#N)O[C@@H](c2ccc3c(N)ncnn23)[C@H](O)[C@@H]1O)OCc1cc(F)cc(C#N)c1` [Compound 80, ((2R,3S,4R,5S)-5-(4-aminopyrrolo[2,1-f][1,2,4]triazin-7-yl)-2-cyano-3,4-dihydroxytetrahydrofuran-2-yl)methyl ((R)-2-((3-cyano-5-fluorobenzyl)oxy)heptadecyl) hydrogen phosphate], the EC50 in data set [2] (setting [4]) came out at 32400 nM. Moreover, in data set [3] (HCV replicon cells (1B)), the half-maximal cytotoxic concentration (CC50) at 3 days is over 44400 nM. With `CCCCCCCCCCCCCCCCCC[C@H](COP(=O)(O)OC[C@@]1(C#N)O[C@@H](c2ccc3c(N)ncnn23)[C@H](O)[C@@H]1O)OCc1cc(Cl)cc(C#N)c1` [Compound 81, ((2R,3S,4R,5S)-5-(4-aminopyrrolo[2,1-f][1,2,4]triazin-7-yl)-2-cyano-3,4-dihydroxytetrahydrofuran-2-yl)methyl ((R)-2-((3-chloro-5-cyanobenzyl)oxy)icosyl) hydrogen phosphate], the concentration giving a half-maximal response (EC50) in data set [2] (setting [4]) came out at 10700 nM. In addition, the cytotoxic concentration (CC50) at 3 days in data set [3] (HCV replicon cells (1B)) was over 44400 nM. With `CCCCCCCCCCCCCCCCCCC[C@H](COP(=O)(O)OC[C@@]1(C#N)O[C@@H](c2ccc3c(N)ncnn23)[C@H](O)[C@@H]1O)OCc1cc(Cl)cc(C#N)c1` [Compound 82, ((2R,3S,4R,5S)-5-(4-aminopyrrolo[2,1-f][1,2,4]triazin-7-yl)-2-cyano-3,4-dihydroxytetrahydrofuran-2-yl)methyl ((R)-2-((3-chloro-5-cyanobenzyl)oxy)henicosyl) hydrogen phosphate], the EC50 in data set [2] worked out at 11300 nM. The 50% cytotoxic concentration (CC50) at 3 days in data set [3] (HCV replicon cells (1B)) was over 44400 nM.
